The values below come from BindingDB's records for doi:10.1021/jm501113m (Duquesne University, 2014).

One may read the IC50 as the concentration that inhibits the measured activity by half.

Assay [1] is described as follows: Inhibition of FRbeta (unknown origin) expressed in Chinese hamster D4 cells assessed as cell growth inhibition incubated up to 96 hrs by Celltiter-blue cell viability assay. Background: The colour change of resazurin is a common sign of viable cells or microbes.
The nature of assay [2]: Inhibition of RFC (unknown origin) expressed in Chinese hamster PC43-10 cells assessed as cell growth inhibition incubated up to 96 hrs by Celltiter-blue cell viability assay.
Assay [3] can be described thus: Inhibition of FRalpha (unknown origin) expressed in Chinese hamster RT16 cells assessed as cell growth inhibition incubated up to 96 hrs by Celltiter-blue cell viability assay.
Assay [4] can be described thus: Inhibition of PCFT (unknown origin) expressed in Chinese hamster R2/PCFT4 cells assessed as cell growth inhibition incubated up to 96 hrs by Celltiter-blue cell viability assay.
Assay [5] is described as follows: Inhibition of FRbeta (unknown origin) expressed in Chinese hamster D4 cells assessed as cell growth inhibition incubated up to 96 hrs in presence of 200 nM folic acid by Celltiter-blue cell viability assay.
Assay [6] is described as follows: Inhibition of FRalpha (unknown origin) expressed in Chinese hamster RT16 cells assessed as cell growth inhibition incubated up to 96 hrs in presence of 200 nM folic acid by Celltiter-blue cell viability assay.

Consider `Nc1nc2[nH]c(CCCc3ccc(C(=O)N[C@@H](CCCC(=O)O)C(=O)O)s3)cc2c(=O)[nH]1`, for which the IC50 is 3.6 nM in assay [1]; > 1000 nM in assay [2]; 9.5 nM in assay [3]; > 1000 nM in assay [4]; > 1000 nM in assay [5]; > 1000 nM in assay [6].
Take `CCC[C@H](NC(=O)c1ccc(CCCc2cc3c(=O)[nH]c(N)nc3[nH]2)s1)C(=O)O`: the IC50 is > 1000 nM in assay [1]; > 1000 nM in assay [2]; 56 nM in assay [3]; > 1000 nM in assay [4]; > 1000 nM in assay [5]; > 1000 nM in assay [6].
As for `Nc1nc2[nH]c(CCCc3ccc(C(=O)NCCCC(=O)O)s3)cc2c(=O)[nH]1`, the IC50 in assay [1] is > 1000 nM; in assay [2], > 1000 nM; in assay [3] it was 27 nM; in assay [4], > 1000 nM; in assay [5], > 1000 nM; in assay [6], > 1000 nM.
As for `Nc1nc2[nH]c(CCCc3ccc(C(=O)N[C@@H](CC(=O)O)C(=O)O)s3)cc2c(=O)[nH]1`, the half-maximal inhibitory concentration (IC50) was 347 nM in assay [1]; > 1000 nM in assay [2]; 6.6 nM in assay [3]; > 1000 nM in assay [4]; > 1000 nM in assay [5]; > 1000 nM in assay [6].
`Nc1nc2[nH]c(CCCc3ccc(C(=O)O)s3)cc2c(=O)[nH]1`: the half-maximal inhibitory concentration (IC50) in assay [1] was > 1000 nM; in assay [2] it was > 1000 nM; in assay [3], 661 nM; in assay [4], > 1000 nM; in assay [5], > 1000 nM; in assay [6] it was > 1000 nM.
